Results as given in patent US20220177471A1, “N-1 BRANCHED ALKYL SUBSTITUTED IMIDAZO[4,5-C]QUINOLINE COMPOUNDS, COMPOSITIONS, AND METHODS” (3M INNOVATIVE PROPERTIES COMPANY, priority 2019, published 2022).
Like-named read-outs stand apart in the source and are kept apart here.

System: Human peripheral blood mononuclear cells (PBMC)
Test: Cytokine induction in human cells (PBMC), cytokines by ELISA / multiplex bead assay
Assay type: cell-based
Conditions: for minimal effective concentration: human PBMC, 21-24 hours, lowest concentration giving cytokine level at least 2x negative control; for cytokine production (statement in words): IFN-alpha, IFN-gamma, TNF-alpha
Method: Whole blood was obtained from healthy human donors and collected by venipuncture into vacutainer tubes or syringes containing EDTA. Human peripheral blood mononuclear cells (PBMC) were purified from the whole blood by density gradient centrifugation. Histopaque 1077 (15 mL, Sigma, St. Louis, Mo.) was transferred to 6×50 mL sterile polypropylene conical tubes. The Histopaque was overlayed with 15-25 mL of blood diluted 1:2 in Hank's Balanced Salts Solution (HBSS) (Gibco, Life Technologies, Grand Island, N.Y.). The tubes were then centrifuged at 1370 revolutions per minute (rpm) for 30 minutes at 20° C., with no brake (400×g, GH 3.8 A Rotor).
The interface (buffy coat) containing the PBMC was collected and placed in a new sterile 50 mL conical polypropylene centrifuge tube. The PBMC were mixed with an equal volume of HBSS (about 20 mL from the interface and about 20 mL of HBSS), and then centrifuged at 1090 rpm, 10 minutes, 20° C., with brake (270×g, GH 3.8 A Rotor). After completing centrifugation, the cells were resuspended in 2-3 mL ACK Red blood cell lysis buffer (ammonium chloride potassium solution, Gibco, Life Technologies) and incubated for 2-5 minutes at 20° C. Next, HBSS (40 mL) was added to the cells, and the sample was centrifuged at 270×g for 10 minutes at 20° C. The supernatant was decanted, and the cell pellet was resuspended in 5 mL AIM V Medium (Gibco, Life Technologies). Cell aggregates and debris were removed by filtering the cell solution through a BD Falcon 70 micron nylon cell strainer (BD Biosciences, San Jose, Calif.).
The number of viable cells was determined by counting with a Miltenyi FACS instrument (Miltenyi Biotec Inc., San Diego, Calif.) or by using a hemacytometer. For determining cell viability with a hemacytometer, the cells were diluted 1/10 in 0.4% trypan blue and HBSS (specifically, 50 microliter of trypan blue+40 microliter of HBSS+10 microliter of cell solution were added to a microfuge tube and mixed). Ten microliters of the diluted cells were then applied to the hemacytometer, and the number of viable PBMC were determined by microscopy.
The PBMC sample was then resuspended in 96-well plates at a concentration of 8×10^5 cells/well in 0.1 mL of AIM-V medium. Each compound was solubilized in dimethyl sulfoxide (DMSO) to create a 3 mM stock solution. The stock solution was then further diluted with AIM-V medium to prepare the serial dilutions. The diluted compound (100 microliters) was then transferred to the PBMCs to produce testing sets with final compound concentrations of either 30, 10, 3.3, 1.1, 0.37, 0.12, 0.04, 0.01 micromolar (testing set A); 100, 30, 10, 3.3, 1.1, 0.37, 0.12, 0.04, 0.01, 0.005 micromolar (testing set B); 100, 33.3, 11.1, 3.7, 1.2, 0.41 micromolar (testing set C); or 100, 50, 30, 10, 3.3, 1.1, 0.37, 0.12, 0.04 micromolar (testing set D). The plates also had both positive and negative controls. The negative control wells contained only AIM-V medium with no example compound. The positive control wells contained a control set of imiquimod serially diluted to concentrations of either 30, 10, 3.3, 1.1, 0.37, 0.12, 0.04, 0.01 micromolar (control set A); 100, 30, 10, 3.3, 1.1, 0.37, 0.12, 0.04, 0.01, 0.005 micromolar (control set B); 100, 33.3, 11.1, 3.7, 1.2, 0.41 micromolar (control set C); or 100, 50, 30, 10, 3.3, 1.1, 0.37, 0.12, 0.04 micromolar (control set D). The concentrations used in the control set were selected to match the concentrations used in the testing set. The plates were then cultured at 37° C./5% CO2 for 21-24 hours. Cell-free supernatants were harvested by centrifuging the 96-well plates at 2100 rpm, 23° C. for 10 minutes. Approximately 160 microliters of the supernatant was then stored in a NUNC 96-well plate, covered with the compression cap and stored at −80° C. until the cytokine analysis was done.
IFN-alpha cytokine levels (picograms/mL) were measured by ELISA (human IFN-alpha, pan specific, Mabtech, Cincinnati, Ohio). […]

[1] = ELISA, read-out: MEC to Induce Cytokine: IFN-alpha
[2] = multiplex bead assay, read-out: MEC to Induce Cytokine: IFN-gamma
[3] = multiplex bead assay, read-out: MEC to Induce Cytokine: TNF-alpha

Structure (SMILES)	minimal effective concentration [1] [µM]	minimal effective concentration [2] [µM]	minimal effective concentration [3] [µM]	cytokine production (statement in words)
CC(C)Cn1cnc2c(N)nc3ccccc3c21 [Comparative Example 1, 1-isobutylimidazo[4,5-c]quinolin-4-amine, reference compound]	11.1	11.1	11.1	–
CC(C)(O)Cn1cnc2c(N)nc3ccccc3c21 [Comparative Example 2, 1-(4-aminoimidazo[4,5-c]quinolin-1-yl)-2-methyl-propan-2-ol, reference compound]	10	10	10	–
CC(C)[C@@H](C)n1cnc2c(N)nc3ccccc3c21 [Example 1, 1-[(1R)-1,2-dimethylpropyl]imidazo[4,5-c]quinolin-4-amine]	3.7	3.7	1.2	–
CC(C)[C@H](C)n1cnc2c(N)nc3ccccc3c21 [Example 2, 1-[(1S)-1,2-dimethylpropyl]imidazo[4,5-c]quinolin-4-amine]	> 100	> 100	> 100	inactive toward cytokine production
C[C@@H](n1cnc2c(N)nc3ccccc3c21)C(C)(C)C [Example 3, 1-[(1R)-1,2,2-trimethylpropyl]imidazo[4,5-c]quinolin-4-amine]	1.2	1.2	1.2	–
C[C@H](n1cnc2c(N)nc3ccccc3c21)C(C)(C)C [Example 4, 1-[(1S)-1,2,2-trimethylpropyl]imidazo[4,5-c]quinolin-4-amine]	> 100	> 100	> 100	inactive toward cytokine production
C[C@H](C1CCCCC1)n1cnc2c(N)nc3ccccc3c21 [Example 5, 1-[(1R)-1-cyclohexylethyl]imidazo[4,5-c]quinolin-4-amine]	0.41	1.2	0.41	–
C[C@@H](C1CCCCC1)n1cnc2c(N)nc3ccccc3c21 [Example 6, 1-[(1S)-1-cyclohexylethyl]imidazo[4,5-c]quinolin-4-amine]	> 100	> 100	> 100	inactive toward cytokine production
CCCC[C@H](C(C)C)n1cnc2c(N)nc3ccccc3c21 [Example 7, 1-[(1R)-1-isopropylpentyl]imidazo[4,5-c]quinolin-4-amine]	0.12	> 30	0.12	–
CCCC[C@@H](n1cnc2c(N)nc3ccccc3c21)C(C)(C)C [Example 8, 1-[(1R)-1-tert-butylpentyl]imidazo[4,5-c]quinolin-4-amine]	0.04	> 30	0.04	–
C[C@@H](n1cnc2c(N)nc3ccccc3c21)C(C)(C)O [Example 9, (3R)-3-(4-aminoimidazo[4,5-c]quinolin-1-yl)-2-methyl-butan-2-ol]	3.3	3.3	10	–
C[C@H](n1cnc2c(N)nc3ccccc3c21)C(C)(C)O [Example 10, (3S)-3-(4-aminoimidazo[4,5-c]quinolin-1-yl)-2-methyl-butan-2-ol]	> 30	> 30	> 30	inactive toward cytokine production
CC[C@@H](n1cnc2c(N)nc3ccccc3c21)C(C)(C)O [Example 11, (3R)-3-(4-aminoimidazo[4,5-c]quinolin-1-yl)-2-methyl-pentan-2-ol]	1.1	3.3	1.1	–
CC[C@H](n1cnc2c(N)nc3ccccc3c21)C(C)(C)O [Example 12, (3S)-3-(4-aminoimidazo[4,5-c]quinolin-1-yl)-2-methyl-pentan-2-ol]	> 100	> 100	> 100	inactive toward cytokine production
CCC[C@@H](n1cnc2c(N)nc3ccccc3c21)C(C)(C)O [Example 13, (3R)-3-(4-aminoimidazo[4,5-c]quinolin-1-yl)-2-methyl-hexan-2-ol]	≤ 0.41	≤ 0.41	≤ 0.41	–
CCC[C@H](n1cnc2c(N)nc3ccccc3c21)C(C)(C)O [Example 14, (3S)-3-(4-aminoimidazo[4,5-c]quinolin-1-yl)-2-methyl-hexan-2-ol]	> 30	> 30	> 30	inactive toward cytokine production
CCCC[C@@H](n1cnc2c(N)nc3ccccc3c21)C(C)(C)O [Example 15, (3R)-3-(4-aminoimidazo[4,5-c]quinolin-1-yl)-2-methyl-heptan-2-ol]	≤ 0.04	0.12	0.12	–
CCCC[C@H](n1cnc2c(N)nc3ccccc3c21)C(C)(C)O [Example 16, (3S)-3-(4-aminoimidazo[4,5-c]quinolin-1-yl)-2-methyl-heptan-2-ol]	> 100	> 100	> 100	inactive toward cytokine production
CC(C)C[C@@H](n1cnc2c(N)nc3ccccc3c21)C(C)(C)O [Example 17, (3R)-3-(4-aminoimidazo[4,5-c]quinolin-1-yl)-2,5-dimethyl-hexan-2-ol]	10	10	10	–
CC(C)C[C@H](n1cnc2c(N)nc3ccccc3c21)C(C)(C)O [Example 18, (3S)-3-(4-aminoimidazo[4,5-c]quinolin-1-yl)-2,5-dimethyl-hexan-2-ol]	> 100	> 100	> 100	inactive toward cytokine production
CCC(O)(CC)[C@@H](C)n1cnc2c(N)nc3ccccc3c21 [Example 19, (2R)-2-(4-aminoimidazo[4,5-c]quinolin-1-yl)-3-ethyl-pentan-3-ol]	1.1	3.3	1.1	–
C[C@@H](n1cnc2c(N)nc3ccccc3c21)C(C)(C)F [Example 20, 1-[(1R)-2-fluoro-1,2-dimethyl-propyl]imidazo[4,5-c]quinolin-4-amine]	10	30	10	–
